In the first assay the test system is NCI-H358. Kind of assay: relative viability (nuclei count vs DMSO), 5 days (fraction); higher = more cells survive. The following applies: first compound 2.53 µM. Summed up: (§1)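 Dosing by pin tool came one day after lung cancer cell lines were seeded in 1536-well plates, using either one drug or a fixed anchor-drug dose plus five library-drug doses (not always all listed) in √10 steps. After 5 days, nuclei were counted on 4× images. Relative viability is treated-well nuclei count divided by vehicle-well nuclei count, and values are medians of duplicate plates.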
In the case of `CCCCCCCCCCCC1=C(O)C(=O)C=C(O)C1=O` [Embelin] + CC(=O)Nc1cccc(-n2c(=O)n(C3CC3)c(=O)c3c(Nc4ccc(I)cc4F)n(C)c(=O)c(C)c32)c1 [Trametinib] (partner 0.02 µM), the relative viability amounted to 0.127.

`CCCCCCCCCCCC1=C(O)C(=O)C=C(O)C1=O` [Embelin] + Nc1ncn([C@H]2C[C@H](O)[C@@H](CO)O2)c(=O)n1 [Decitabine] (partner 2 µM) came in with a relative viability of 0.23.

`CCCCCCCCCCCC1=C(O)C(=O)C=C(O)C1=O` [Embelin] + COc1cccc2cc(-c3nc([C@H]4CC[C@H](C(=O)O)CC4)n4ncnc(N)c34)[nH]c12 [OSI-027] (partner 0.5 µM): the relative viability is 0.898.

In turn, `CCCCCCCCCCCC1=C(O)C(=O)C=C(O)C1=O` [Embelin] + Nc1nc2[nH]cc(CCc3ccc(C(=O)N[C@@H](CCC(=O)O)C(=O)O)cc3)c2c(=O)[nH]1 [Pemetrexed] (partner 0.2 µM) returned a relative viability of 0.178.

The assay is the same for the next values; noted with them: first compound 8 µM.
For `CCCCCCCCCCCC1=C(O)C(=O)C=C(O)C1=O` [Embelin] + Cc1cc(Nc2cc(N3CCN(C)CC3)nc(Sc3ccc(NC(=O)C4CC4)cc3)n2)n[nH]1 [Tozasertib] (partner 0.1 µM), the relative viability amounted to 0.106.

Consider `CCCCCCCCCCCC1=C(O)C(=O)C=C(O)C1=O` [Embelin] + CC(=O)Nc1cccc(-n2c(=O)n(C3CC3)c(=O)c3c(Nc4ccc(I)cc4F)n(C)c(=O)c(C)c32)c1 [Trametinib] (partner 0.02 µM), for which the relative viability was 0.14.

Regarding `CCCCCCCCCCCC1=C(O)C(=O)C=C(O)C1=O` [Embelin] + Nc1ncn([C@H]2C[C@H](O)[C@@H](CO)O2)c(=O)n1 [Decitabine] (partner 2 µM), the relative viability came to 0.221.

In turn, `CCCCCCCCCCCC1=C(O)C(=O)C=C(O)C1=O` [Embelin] + COc1cccc2cc(-c3nc([C@H]4CC[C@H](C(=O)O)CC4)n4ncnc(N)c34)[nH]c12 [OSI-027] (partner 0.5 µM) registered a relative viability of 1.07.

For `CCCCCCCCCCCC1=C(O)C(=O)C=C(O)C1=O` [Embelin] + Nc1nc2[nH]cc(CCc3ccc(C(=O)N[C@@H](CCC(=O)O)C(=O)O)cc3)c2c(=O)[nH]1 [Pemetrexed] (partner 0.2 µM), the relative viability was 0.175.

A further assay deals with ChaGo-K-1. The description is as above. The following applies: first compound 0.08 µM. Summed up: as §1
In the case of `CCCCCCCCCCCC1=C(O)C(=O)C=C(O)C1=O` [Embelin] + Cc1cc(Nc2cc(N3CCN(C)CC3)nc(Sc3ccc(NC(=O)C4CC4)cc3)n2)n[nH]1 [Tozasertib] (partner 0.1 µM), the relative viability was found to be 0.243.

Consider `CCCCCCCCCCCC1=C(O)C(=O)C=C(O)C1=O` [Embelin] + CC(=O)Nc1cccc(-n2c(=O)n(C3CC3)c(=O)c3c(Nc4ccc(I)cc4F)n(C)c(=O)c(C)c32)c1 [Trametinib] (partner 0.02 µM), for which the relative viability came out at 0.966.

Regarding `CCCCCCCCCCCC1=C(O)C(=O)C=C(O)C1=O` [Embelin] + Nc1ncn([C@H]2C[C@H](O)[C@@H](CO)O2)c(=O)n1 [Decitabine] (partner 2 µM), the relative viability was found to be 0.523.

In the case of `CCCCCCCCCCCC1=C(O)C(=O)C=C(O)C1=O` [Embelin] + COc1cccc2cc(-c3nc([C@H]4CC[C@H](C(=O)O)CC4)n4ncnc(N)c34)[nH]c12 [OSI-027] (partner 0.5 µM), the relative viability stood at 0.572.

For the compound `CCCCCCCCCCCC1=C(O)C(=O)C=C(O)C1=O` [Embelin] + Nc1nc2[nH]cc(CCc3ccc(C(=O)N[C@@H](CCC(=O)O)C(=O)O)cc3)c2c(=O)[nH]1 [Pemetrexed] (partner 0.2 µM), the relative viability came out at 0.264.

The assay is the same for the next values; noted with them: first compound 0.8 µM.
`CCCCCCCCCCCC1=C(O)C(=O)C=C(O)C1=O` [Embelin] + Cc1cc(Nc2cc(N3CCN(C)CC3)nc(Sc3ccc(NC(=O)C4CC4)cc3)n2)n[nH]1 [Tozasertib] (partner 0.1 µM) had a relative viability of 0.239.

Regarding `CCCCCCCCCCCC1=C(O)C(=O)C=C(O)C1=O` [Embelin] + CC(=O)Nc1cccc(-n2c(=O)n(C3CC3)c(=O)c3c(Nc4ccc(I)cc4F)n(C)c(=O)c(C)c32)c1 [Trametinib] (partner 0.02 µM), the relative viability stood at 0.871.

`CCCCCCCCCCCC1=C(O)C(=O)C=C(O)C1=O` [Embelin] + Nc1ncn([C@H]2C[C@H](O)[C@@H](CO)O2)c(=O)n1 [Decitabine] (partner 2 µM) registered a relative viability of 0.531.

With `CCCCCCCCCCCC1=C(O)C(=O)C=C(O)C1=O` [Embelin] + COc1cccc2cc(-c3nc([C@H]4CC[C@H](C(=O)O)CC4)n4ncnc(N)c34)[nH]c12 [OSI-027] (partner 0.5 µM), the relative viability is 0.636.

Take `CCCCCCCCCCCC1=C(O)C(=O)C=C(O)C1=O` [Embelin] + Nc1nc2[nH]cc(CCc3ccc(C(=O)N[C@@H](CCC(=O)O)C(=O)O)cc3)c2c(=O)[nH]1 [Pemetrexed] (partner 0.2 µM): the relative viability turned out to be 0.258.

Staying with this assay, now noted: first compound 2.53 µM.
`CCCCCCCCCCCC1=C(O)C(=O)C=C(O)C1=O` [Embelin] + Cc1cc(Nc2cc(N3CCN(C)CC3)nc(Sc3ccc(NC(=O)C4CC4)cc3)n2)n[nH]1 [Tozasertib] (partner 0.1 µM) gave a relative viability of 0.212.

On to `CCCCCCCCCCCC1=C(O)C(=O)C=C(O)C1=O` [Embelin] + CC(=O)Nc1cccc(-n2c(=O)n(C3CC3)c(=O)c3c(Nc4ccc(I)cc4F)n(C)c(=O)c(C)c32)c1 [Trametinib] (partner 0.02 µM), for which the relative viability came to 0.963.

In turn, `CCCCCCCCCCCC1=C(O)C(=O)C=C(O)C1=O` [Embelin] + Nc1ncn([C@H]2C[C@H](O)[C@@H](CO)O2)c(=O)n1 [Decitabine] (partner 2 µM) registered a relative viability of 0.507.

Take `CCCCCCCCCCCC1=C(O)C(=O)C=C(O)C1=O` [Embelin] + COc1cccc2cc(-c3nc([C@H]4CC[C@H](C(=O)O)CC4)n4ncnc(N)c34)[nH]c12 [OSI-027] (partner 0.5 µM): the relative viability turned out to be 0.699.

For the compound `CCCCCCCCCCCC1=C(O)C(=O)C=C(O)C1=O` [Embelin] + Nc1nc2[nH]cc(CCc3ccc(C(=O)N[C@@H](CCC(=O)O)C(=O)O)cc3)c2c(=O)[nH]1 [Pemetrexed] (partner 0.2 µM), the relative viability turned out to be 0.249.

Staying with this assay, now noted: first compound 8 µM.
`CCCCCCCCCCCC1=C(O)C(=O)C=C(O)C1=O` [Embelin] + Cc1cc(Nc2cc(N3CCN(C)CC3)nc(Sc3ccc(NC(=O)C4CC4)cc3)n2)n[nH]1 [Tozasertib] (partner 0.1 µM) showed a relative viability of 0.243.

`CCCCCCCCCCCC1=C(O)C(=O)C=C(O)C1=O` [Embelin] + CC(=O)Nc1cccc(-n2c(=O)n(C3CC3)c(=O)c3c(Nc4ccc(I)cc4F)n(C)c(=O)c(C)c32)c1 [Trametinib] (partner 0.02 µM) had a relative viability of 0.922.

`CCCCCCCCCCCC1=C(O)C(=O)C=C(O)C1=O` [Embelin] + Nc1ncn([C@H]2C[C@H](O)[C@@H](CO)O2)c(=O)n1 [Decitabine] (partner 2 µM) displayed a relative viability of 0.484.

In turn, `CCCCCCCCCCCC1=C(O)C(=O)C=C(O)C1=O` [Embelin] + COc1cccc2cc(-c3nc([C@H]4CC[C@H](C(=O)O)CC4)n4ncnc(N)c34)[nH]c12 [OSI-027] (partner 0.5 µM) yielded a relative viability of 0.556.

Compound `CCCCCCCCCCCC1=C(O)C(=O)C=C(O)C1=O` [Embelin] + Nc1nc2[nH]cc(CCc3ccc(C(=O)N[C@@H](CCC(=O)O)C(=O)O)cc3)c2c(=O)[nH]1 [Pemetrexed] (partner 0.2 µM) displayed a relative viability of 0.251.

For the origin of these results see the supplement of paper PMC10307832.
